Reference: patent publication US20220323269A1, “PERSONAL HYGIENE PRODUCT” (Croda International Plc, priority 2019, published 2022)

Tests used:
Type in all cases: in vivo
[1] = tested on: skin, volar forearm test sites; assay: Comparative irritation panel study vs ester based emollient, TEWL by POST protocol (Example 4); conditions: FIG. 9; 10 gsm polypropylene nonwoven; 0.6% Cirrasol Care + 12% additive; 24 hours under occlusion patch; 16 panellists
Text: 10 gsm polypropylene nonwoven textile was cut into 11 mm diameter circles. Each circle was individually treated with water based dispersions then dried to achieve a treat rate of a) 0.6% low-irritation hygiene finish (Cirrasol™ Care ex. Croda, Sample A) based on weight of textile, or b) 0.6% low-irritation hygiene finish and 12% di-PPG-2 myreth-10 adipate (a diester skin care additive in accordance with the present invention, Sample B), or c) 0.6% low-irritation hygiene finish and 12% of a saturated tri-ester based emollient (Crodamol™ GTCC ex. Croda, Sample C). Treat rates are expressed as percentage by weight of textile. […]
(§1) For each panellist three test sites on each volar forearm were identified and marked (i.e. 6 test sites in total per panellist were assessed). An initial trans-epidermal water loss (TEWL) reading was taken using an AquaFlux AF200 Instrument to ensure no initial skin irritation at each of the 6 test sites. […]
(§2) After 24 hours panellists were again acclimatised to the laboratory environment for 20 mins at 20° C. and 45% relative humidity. TEWL was measured using the POST (post occlusion stress test) protocol. Under this test the occlusion patch is removed, along with the textile sample, the test site is then wiped of any surface moisture, and then TEWL readings are taken immediately using the same AquaFlux AF200 Instrument. […]

[2] = tested on: skin, volar forearm test sites; assay: Irritation panel study, TEWL by POST (post occlusion stress test) protocol, SLS irritant model (Example 1); conditions: FIG. 1; 10 gsm polypropylene nonwoven with 1% SLS + 2% diester vs 1% SLS alone (Sample A); 24 hours under occlusion patch; 9 panellists
Text: 10 gsm polypropylene nonwoven textile was cut into 11 mm diameter circles. Each circle was individually treated with water based dispersions then dried to achieve either a treat rate of a) 1% sodium lauryl sulphate (SLS, Sample A) based on weight of textile, or b) 1% SLS and 2% di-PPG-2 myreth-10 adipate (a diester skin care additive in accordance with the present invention, Sample B) based on percentage by weight of textile. SLS is a known skin irritant, and so provides a good model for assessing skin irritancy in test subjects/panellists.
An irritation panel study was carried out, the study included 9 individual panellists. […]
as §1, §2

[3] = tested on: skin, volar forearm test sites; assay: Comparative irritation panel study vs glycerine based emollient, TEWL by POST protocol (Example 3); conditions: FIG. 8; 10 gsm polypropylene nonwoven; 0.6% Cirrasol Care + 12% additive; 24 hours under occlusion patch; 16 panellists
Text: 10 gsm polypropylene nonwoven textile was cut into 11 mm diameter circles. Each circle was individually treated with water based dispersions then dried to achieve a treat rate of a) 0.6% low-irritation hygiene finish (CirrasolTM Care ex. Croda, Sample A), or b) 0.6% low irritation hygiene finish and 12% […]-10 adipate (a diester skin care additive in accordance with the present invention, Sample B), or c) 0.6% low-irritation hygiene finish and 12% of a glycerine based emollient (Sample C). Treat rates are expressed as percentage by weight of textile. An irritation panel study was carried out, the study included 16 individual panellists. […] For each panellist three test sites on each volar forearm were identified and marked (i.e. 6 test sites in total per panellist were assessed). An initial trans-epidermal water loss (TEWL) reading was taken using an AquaFlux AF200 Instrument to ensure no initial skin irritation at each of the 6 test sites. […] TEWL was measured using the POST (post occlusion stress test) protocol. Under this test the occlusion patch is removed, along with the textile sample, the test site is then wiped of any surface moisture, and then TEWL readings are taken immediately using the same AquaFlux AF200 Instrument. TEWL is measured until the water loss rate peaks, and for the following 5 minutes. Results are measured in total water loss for 5 minutes after water loss rate peaks. […]

What does the source list for “di-PPG-2 myreth-10 adipate [diester skin care additive]”?
skin irritation from nonwoven in contact with skin (combined average TEWL) compared to low-irritancy hygiene finish alone [1]: reduced skin irritation; decrease in skin water loss (combined average TEWL of all panellists) [2]: 31%; skin irritation from nonwoven in contact with skin (combined average TEWL) compared to low-irritancy hygiene finish alone [3]: reduced skin irritation
